This note sets out measurements from patent US20110060057A1, “Inhibition of the Survival of Skin Cancer by Cyclohexenone Compounds from Antrodia Camphorata” (GOLDEN BIOTECHNOLOGY CORPORATION, priority 2009, published 2011).

The subject of the test is skin cancer cell line A431. Put plainly: In vitro survival assay (MTT) for anti-skin cancer effects. Format: cell-based. The note with it: A-431, A431 human epidermoid carcinoma cell line, 48 hours treatment, read-out: IC50 (half inhibition concentration), survival of skin cancer cells. The protocol: Inhibiting effects of skin cancer cells by cyclohexenone compounds of Antrodia camphorata from example 1 were assessed according to the anticancer-drug screening model of National Cancer Institute (NCI). The compound 4-hydroxy-2,3-dimethoxy-6-methyl-5 -(3,7,11-trimethyl-dodeca-2,6,10-trienyl)-cyclohex-2-enone from example 1 was added into the culture media of skin cancer cell line A431 to determine the survival rates. Survival of cell was analyzed using MTT assay. A431 cell line was a human epidermoid carcinoma cell line.
MTT assay is commonly used to analyze cell proliferation, survival rate of viable cells and cytotoxicity. MTT (3[4,5-dimethylthiazol-2-yl]-2,5-diphenyltetrazolium bromide) is a yellow dye which can be converted to water-insoluble purple formazan on the reductive cleavage of its tetrazolium ring by the succinate tetrazolium reductase in mitochondria of cells. The amount of formazan produced is used to detect the number of viable cells and calculate the survival rates. […]
Afterward, 2.5 mg/ml of MTT solution was added to each well and incubated in the dark for 4 hours, followed by the addition of 100 μl of lysis buffer to stop the reaction. The absorbances were measured at 570 nm with an ELISA Reader to determine the survival rates.

For `COC1=C(OC)C(O)C(C/C=C(\C)CC/C=C(\C)CCC=C(C)C)C(C)C1=O` (stereo not shown) [formula 2, 4-hydroxy-2,3-dimethoxy-6-methyl-5-(3,7,11-trimethyl-dodeca-2,6,10-trienyl)-cyclohex-2-enone], the IC50 was 0.18 µg/mL.
